Here are results for 9 compounds from patent publication US20100130597A1, “DNA-PKCS MODULATES ENERGY REGULATION AND BRAIN FUNCTION” (The United State of America, as represented by the …, priority 2007, published 2010).

For one assay, the system named is MCF7 cells. The experiment in a line: Reactive oxygen species production in MCF7 cells (CM-H2DCFDA). The assay is classed as cell-based. Conditions: for Reactive oxygen species production: NU 7026 5 μM 12 h, DNP 200 μM 10 min, Troglitazone 30 μM 4 hr, Euk-134 5 μM 3 h, MnTBAP 14 μM 3 h, FIG. 4. An excerpt: Measurement of intracellular reactive oxygen species was based on changes in the fluorescence intensity of redox-sensitive fluorescent probes, including CM-H2DCFDA. CM-H2DCFDA is a probe for intracellular hydrogen peroxide (Jou M J et al. J. Biomed Sci 9:507 (2002)). CM-H2DCFDA rapidly diffuses into cells, reacts with intracellular glutathione and thiols, and yields a fluorescent product that is retained inside the cell (Shanker G et al. Mol Brain Res 128:48, 2004). The fluorescence intensity of CM-H2DCFDA is therefore indicative of the amount of intracellular H2O2.
Briefly, cells were incubated with 10 uM CM-H2DCFDA for 30 min at 37° C. The cells were then excited at the peak excitation wavelength for CM-H2DCFDA (485 nm) and emissions at 535 nm were measured with Wallac Victor multilable counter (Perkin Elmer). For glucose treatment, the total sugar content in the media was kept constant by supplementing with mannitol, which is not metabolized.
MCF-7 cells were obtained from ATCC and grown as recommended. Confluent MCF-7 cells were incubated with serum-free DMEM medium for 3-12 h before the experiment. MCF-7 cells were then treated with DNA-PK inhibitor NU 7026 (5 μM; Calbiochem) for 12 h, DNP (200 μM; Sigma) for 10 min, Troglitazone (30 μM) for 4 hr, Euk-134 (5 μM; Eukarion) for 3 h, MnTBAP (14 μM; Calbiochem) for 3 h and Resveratrol.

The subject of the next assay is neurons. Conditions: low concentrations; De Felice et al. 2001; cited from earlier work.
For a further assay, the target named is T1, DNA-PKcs (Homo sapiens, UniProt P78527).
T1 construct: endogenous in cells; host or cells: MCF7 (ATCC)
Kind of assay: DNA-PKcs activation in MCF7 cells, immunoblot for phosphorylated Ser2056. The format is cell-based. Conditions: for DNA-PKcs activation in the presence of 25 mM glucose: MCF7 cells, FIG. 5. The procedure:
MCF7 cells were obtained from the ATCC. MCF7 cells in G0 were treated with varying doses of H2O2 (FIG. 1). The cells were examined while in the G0 phase of their life cycle to mimic the post-mitotic state of cells in vivo. Low passage MCF-7 cells in G0 were exposed to varying concentrations of H2O2 for 60 minutes with or without Euk-134 or ionizing radiation (5 Gy). For Western blot analysis of DNA-PKcs activation and the activation of other signaling pathways in this study, the following antibodies were used: ACC1 (Cell Signaling); p-ACC1 (Upstate); AMP-activated protein kinase (AMPK; Cell Signaling); p-AMPK(T172) (Cell Signaling); DNA-PK (Lab Vision); p53 (Novocastra); p-DNA-PK(S2056) (Abeam); p-p53(S15) (Cell Signaling); γ-H2AX (Upstate); 53BP1 (Novus Biologicals).
Activation of DNA-PKcs was visualized by immunoblotting cell lysates with antibody specific for phosphorylated Ser2056, which is autophosphorylated during DNA-PKcs activation (Chen et al., J. Biol. Chem. 280: 14709-15 (2005)) (FIG. 1). […] Instead, H2O2 increased DNA-PKcs activation, and such activation was abrogated by the antioxidant Euk-134 (FIG. 1), a potent synthetic superoxide dismutase and catalase mimetic (Chatterjee, Am. J. Nephrol. 24: 165-77 (2004)).
MCF7 cells were then cultured in 25 mM glucose. Aliquots of the cultured MCF7 cells were treated with ionizing radiation and/or the DNA-PKcs-specific inhibitor NU7026. Treatment with glucose and ionizing radiation increased DNA-PKcs phosphorylation (data not shown). […] The basal activity of DNA-PKcs in MCF-7 cells in 25 mM glucose was detectable even in the absence of ionizing radiation, but this basal activity was suppressed with the DNA-PKcs-specific inhibitor NU7026 (data not shown).
(In general: A western blot detects proteins with antibodies after separation by electrophoresis.)

The nature of assay [1]: Hot plate test, latency for pain reaction. The assay is classed as in vivo, mice. As to conditions: data not shown. How it is done: Epidemiological studies indicate that people with mood disorders are twice as likely to have chronic pain compared to people without mood disorders (Ohayon et al., Arch. Gen. Psychiatry 60: 39-47 (2003)). Although it is possible that pain contributes to the depressed mood, it is also possible that perception of pain is increased in people with mood disorders. To determine whether SCID mice have altered pain tolerance, the latency for pain reaction to a hot plate was measured. […] (FIG. 30) and at 55° C.
Because tolerance to pain (Example 26) is also linked to the serotonergic pathways, measurements of the latency to pain reaction on hot plate after saline, serotonin reuptake inhibitor fluoxetine (Prozac) or serotonin antagonist GR38032F (Zofran) injection were made.
(§1) Elevated plus maze tests, light/dark chamber tests, forced swim tests (FST) and hot plate tests were performed as described earlier.
(Thermal pain tests record how soon the animal reacts.)

The nature of a further assay: Elevated plus maze test. The assay is classed as in vivo, mice. Conditions: SCID mice, intraperitoneal injection, FIG. 33. The procedure:
To evaluate whether SCID mice may also have altered anxiety, fear and depression-like traits, an elevated plus maze test was performed, which is a commonly used test to quantify the level of anxiety- and depression-like traits in rodents (Pellow et al. J. Neurosci. Methods 14: 149-67 (1985)). The elevated plus maze has narrow runways that are located 16 inches above the surface that are either closed or open. The animal is placed in the center of an elevated 4-arm maze in which 2 arms are open and 2 are enclosed. Mice generally avoid the open arms because of their fear of open space and height. The elevated plus-maze is used to determine the rodent's response to a potentially dangerous environment and anxiety-related behavior is measured by the degree to which the rodent avoids the unenclosed arms of the maze. Increase in the number of times the animal enters the open arm and the amount of time spent in the open arms reflect decreased anxiety and depression.
as §1

Another assay deals with DNA-PK (Homo sapiens, UniProt P78527). Conditions: Hardcastle et al., J. Med. Chem. 48: 7829-46 (2005); read-out: IC50 against DNA-PK; cited from earlier work.
A further assay relates to Sirt1 and PGC-1α. Kind of assay: Sirt1 and PGC-1α expression in C2C12 myoblasts. The format is cell-based. The procedure: Increased mitochondrial function boosts energy production and physical endurance. […] Further tests were therefore conducted to ascertain whether DNA-PKcs inhibitor elevates mitochondrial biogenesis and expression of PGC-1α and Sirt, which are important for mitochondrial biogenesis. […] It is important to note that only 2.5 μM of NU7026 was required to induce a similar level of Sirt1 to that induced by 25-50 μM Resveratrol, a well-known, potent Sirt1 activator.

The subject of a further assay is C2C12 cells. Kind of assay: Mitochondrial DNA copy number in C2C12 cells. The format is cell-based. Conditions: C2C12 myoblasts, FIG. 49C. The procedure:
Quantitative Real-Time PCR was used to assess the relative amounts of nuclear DNA and mtDNA, to permit assessment of the ratio of mtDNA to nucleic DNA, which reflects the tissue concentration of mitochondria per cell. Muscle tissues were homogenized and digested with Proteinase K overnight in a lysis buffer for DNA extraction by conventional phenol-chloroform method. Quantitative PCR was performed using the following primers: […]
Increased mitochondrial function boosts energy production and physical endurance. […] Further tests were therefore conducted to ascertain whether DNA-PKcs inhibitor elevates mitochondrial biogenesis and expression of PGC-1α and Sirt, which are important for mitochondrial biogenesis. […] It is important to note that only 2.5 μM of NU7026 was required to induce a similar level of Sirt1 to that induced by 25-50 μM Resveratrol, a well-known, potent Sirt1 activator. In FIG. 49C, mitochondrial DNA copy number increased (>1.8 fold) in C2C12 cells after 2.5 μM NU7026 treatment.

The test system of another assay is LKB1. Kind of assay: LKB1 activation (LKB1 phosphorylation) in C2C12 cells. The assay is classed as cell-based. Conditions: NU7026 2.5 μM, Resveratrol 50 μM, FIG. 51A. How it is done: Cells were treated with DNA-PKcs inhibitors to ascertain whether DNA-PKcs suppresses LKB1 activity in vitro.
The conditions of assay [2]: rats, systemic administration of kainic acid; Rong et al. 1999; cited from earlier work.
The conditions of assay [3]: in vitro; cited from earlier work.
Assay [4] in a line: Treadmill running endurance. The assay is classed as in vivo, mice. As to conditions: ob/ob mice, FIG. 39. The procedure: Previous studies have shown that increased expression of PPARδ or PGC-1α in skeletal muscle decreases exercise-induced fatigue. Therefore, tests were performed to ascertain what was the physical endurance of 4, 7 and 14 month-old SCID and WT mice using treadmill running. Prior to the exercise test, the mice were accustomed to and trained by running on an Exer-3/6 mouse treadmill (Columbus Instruments) at 7 m/min for 5 minutes for 3 days. For the endurance test, the treadmill speed was increased to 10 m/min and mice were allowed to run until exhaustion.
The therapeutic potential of DNA-PKcs inhibitors to reverse physical decline with aging was tested. In particular, the physical endurance of obese and middle-aged mice treated with Cpd36 was examined by treadmill running. Obese mice fed a high-fat diet that were treated with Cpd36 were able to run 40-50% farther over a given period of time than the control mice fed the same high fat diet (FIG. 45), as measured by totaling the distance run on a treadmill. Middle-aged mice (13 months) fed a breeder diet who were similarly treated with Cpd36 were also able to run 40-50% farther than middle aged mice that received no such treatment (data not shown).

Assay [5] can be described thus: ROS levels in tissues of ob/ob mice. The format is in vivo. Conditions: FIG. 38.
The conditions of assay [6]: middle cerebral artery ligation; Baker et al. 1998; cited from earlier work.

In the case of `Cc1c(C)c2c(c(C)c1O)CCC(C)(COc1ccc(CC3SC(=O)NC3=O)cc1)O2` (racemic) [TZD, (±)-[[4-[(3,4-dihydro-6-hydroxy-2,5,7,8-tetramethl-2H-1-benzopyran-2-yl)methoxy]phenyl]methyl]-2,4-thiazolidinedione], in the assay on MCF7 cells, the “Reactive oxygen species production” value is given as “significantly decreased”.

With `O=[N+]([O-])c1ccc(O)c([N+](=O)[O-])c1` [DNP, 2,4-dinitrophenol], in the assay on MCF7 cells, the “Reactive oxygen species production” value is recorded as “significantly decreased”. Further, the “protection of neurons against amyloid-beta peptide toxicity” value in the assay with neurons is “protect neurons against the toxicity of the amyloid-beta peptide”. On DNA-PKcs, the “DNA-PKcs activation in the presence of 25 mM glucose” value (shortened to “DNA-PKcs activation in the presence”) is recorded as “decreased DNA-PKcs activation”.

As for `CNCCC(Oc1ccc(C(F)(F)F)cc1)c1ccccc1` (stereo not drawn) [Fluoxetine], in assay [1] (wild-type mice), the “latency for pain reaction on hot plate” value is recorded as “increased the latency for pain reaction in wild-type mice”.

For the compound `Cc1nccn1CC1CCc2c(c3ccccc3n2C)C1=O.Cl` (stereo not drawn) [GR38032F], the “latency for pain reaction on hot plate” value in assay [1] (SCID mice) is listed as “decreased the latency for pain reaction in SCID mice”; in assay [1] (wild-type mice), “not wild-type mice”. Further, the “number of SCID mice that stayed in the open arm 30 sec or longer” value in the assay “Elevated plus maze test” is recorded as “decreased dramatically”.

The term IC50 denotes the point on the concentration scale where inhibition reaches its midpoint. As to `O=c1cc(N2CCOCC2)oc2c(-c3cccc4c3sc3ccccc34)cccc12` [NU7441, 8-dibenzothiophen-4-yl-2-morpholin-4-yl-chromen-4-one], the IC50 on DNA-PK is 13 nM.

Take `Oc1ccc(/C=C/c2cc(O)cc(O)c2)cc1` [Resveratrol]: the “Reactive oxygen species production” value with MCF7 cells is on record as “significantly decreased”. Moreover, in the assay on Sirt1 and PGC-1α, the “concentration required to induce a similar level of Sirt1” value was 25 to 50 µM. In the assay with Sirt1 and PGC-1α (FIG. 49), the “PGC-1α and Sirt1 expression” value was “increased”. Further, the “relative copy number of mitochondrial DNA” value with C2C12 cells is on record as “increases”. Also, on DNA-PKcs, the “DNA-PKcs activation in the presence” value is on record as “decreased DNA-PKcs activation”. The “LKB1 activation (LKB1 phosphorylation)” value with LKB1 is “showed LKB1 activation”.

With `CN(C)C(=N)NC(=N)N` [metformin], the “DNA-PKcs activation in the presence” value at DNA-PKcs is “decreased DNA-PKcs activation”.

Regarding Euk-134, the “Reactive oxygen species production” value in the assay with MCF7 cells was “significantly decreased”. In the assay with MCF7 cells (glucose 0-25 mM, 3 hr, FIG. 2), the “glucose-induced reactive oxygen species production” value is on record as “partially suppressed”. In assay [2], the “oxidative stress and brain damage” value is “prevent oxidative stress and attenuate brain damage”. Also, on DNA-PKcs (MCF7 cells in G0, H2O2 60 minutes, FIG. 1), the “H2O2-induced DNA-PKcs activation” value was “abrogated”. For the same compound, the “DNA-PKcs activation in the presence” value on DNA-PKcs is on record as “decreased DNA-PKcs activation”. In addition, the hydrogen peroxide consumption result in assay [3] was “consumes hydrogen peroxide in vitro”. Also, in assay [4], the treadmill running ability entry was “increased running ability of ob/ob mice dramatically”. The “ROS production in muscle, WAT and heart tissues” value in [5] is reported as “decreased ROS production”. Besides, the “effect in rat stroke model” value in assay [6] is on record as “protective effects”.

As to “Manganese (III) tetrakis(4-benzoic acid)porphyrin [MnTBAP]”, the “Reactive oxygen species production” value with MCF7 cells is on record as “significantly decreased”. Moreover, the “DNA-PKcs activation in the presence” value at DNA-PKcs was “decreased DNA-PKcs activation”.
